These results are taken from patent US9951045B2, “Indazole compounds as 5-HT4 receptor agonists” (SUVEN LIFE SCIENCES LIMITED, priority 2013, dated 2018).

Data set [1] is described as follows: Rodent brain penetration study. It is filed as in vivo, Male Wistar rats. The following applies: male, Wistar, brain and plasma; rat, 3 mg/kg oral (gavage); read-out: Single dose Brain Penetration (Cb/Cp). The procedure: Male Wistar rats (225±25 grams) were used as experimental animals. Three animals were housed in each cage. Animals were given water and food ad libitum throughout the experiment and maintained on a 12 hours light/dark cycle.
Brain penetration was determined in discrete manner in rats. One day prior to dosing day, male wistar rats (225-250 grams) were acclimatized. After acclimatization the rats were grouped according to their weight. In each group, 3 animals were kept in individual cage and allowed free access to food and water. At each time point (0.50, 1, and 2 hours) n=3 animals were used.
The compounds of formula (I) were suitably preformulated and administered orally at (free base equivalent) 3 mg/kg. Blood samples were removed via, cardiac puncture by using isoflurane anesthesia. The animals were sacrificed to collect brain tissue. Plasma was separated and brain samples were homogenized and stored frozen at −20° C. until analysis. The concentrations of the compounds of formula (I) in plasma and brain were determined using LC-MS/MS method.
The compounds of formula (I) were quantified in plasma and brain homogenate by qualified LC-MS/MS method using suitable extraction technique. The compounds of formula (I) were quantified in the calibration range of 1-500 ng/mL in plasma and brain homogenate. Study samples were analyzed using calibration samples in the batch and quality control samples spread across the batch. Extent of brain-plasma ratio was calculated (Cb/Cp).

For data set [2], the system named is Male Wistar rats. The data set can be described thus: Object recognition task model. It is filed as in vivo. The settings on record: rat, p.o. The procedure:
The cognition enhancing properties of compounds of this invention were estimated by using this model.
Male Wistar rats (230-280 grams) were used as experimental animals. Four animals were housed in each cage. Animals were kept on 20% food deprivation before one day and given water ad libitum throughout the experiment and maintained on a 12 hours light/dark cycle. Also the rats were habituated to individual arenas for 1 hour in the absence of any objects.
One group of 12 rats received vehicle (1 mL/Kg) orally and another set of animals received compound of the formula (I) either orally or i.p., before one hour of the familiar (T1) and choice trial (T2).
The experiment was carried out in a 50×50×50 cm open field made up of acrylic. In the familiarization phase, (T1), the rats were placed individually in the open field for 3 minutes, in which two identical objects (plastic bottles, 12.5 cm height×5.5 cm diameter) covered in yellow masking tape alone (a1 and a2) were positioned in two adjacent corners, 10 cms from the walls. After 24 hours of the (T1) trial for long-term memory test, the same rats were placed in the same arena as they were placed in T1 trial. Choice phase (T2) rats were allowed to explore the open field for 3 minutes in presence of one familiar object (a3) and one novel object (b) (Amber color glass bottle, 12 cm high and 5 cm in diameter). Familiar objects presented similar textures, colors and sizes. During the T1 and T2 trial, explorations of each object (defined as sniffing, licking, chewing or having moving vibrissae whilst directing the nose towards the object at a distance of less than 1 cm) were recorded separately by stopwatch. Sitting on an object was not regarded as exploratory activity, however, it was rarely observed.
T1 is the total time spent exploring the familiar objects (a1+a2).
T2 is the total time spent exploring the familiar object and novel object (a3+b).
The object recognition test was performed as described by Behaviour Brain Research, 31 (1988), 47-59.

For data set [3], the target named is T1, recombinant human 5-HT4 receptor (Homo sapiens, UniProt Q13639).
T1 construct: expressed in transfected cells
T1 sequence (Q13639 whole entry): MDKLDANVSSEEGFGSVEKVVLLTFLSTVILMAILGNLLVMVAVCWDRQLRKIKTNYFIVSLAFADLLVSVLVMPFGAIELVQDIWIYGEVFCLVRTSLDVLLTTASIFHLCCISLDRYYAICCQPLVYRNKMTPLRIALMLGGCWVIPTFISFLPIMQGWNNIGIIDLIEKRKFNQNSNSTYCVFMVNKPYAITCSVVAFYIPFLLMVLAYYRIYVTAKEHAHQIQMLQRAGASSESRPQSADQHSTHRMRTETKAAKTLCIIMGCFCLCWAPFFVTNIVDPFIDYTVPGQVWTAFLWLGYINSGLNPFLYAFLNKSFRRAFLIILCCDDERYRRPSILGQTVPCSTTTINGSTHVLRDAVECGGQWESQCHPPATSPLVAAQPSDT
Description: Determination of EC50 values for 5-HT4 receptor (CHO cells, pCRE-Luc reporter). The following applies: luciferase reporter, 4 hours incubation, read-out: 5-HT4 receptor agonistic binding in-vitro EC50. It is filed as cell-based. The procedure:
A stable CHO cell line expressing recombinant human 5-HT4 receptor and pCRE-Luc reporter system was used for cell-based assay. The assay offers a non-radioactive based approach to determine binding of a compound to GPCRs. In this specific assay, the level of intracellular cyclic AMP, which is modulated by activation, or inhibition of the receptor is measured. The recombinant cells harbor luciferase reporter gene under the control of cAMP response element.
The above cells were grown in 96 well clear bottom white plates in Hams F12 medium containing 10% fetal bovine serum (FBS). Prior to the addition of compounds or standard agonist, cells were serum starved overnight. Increasing concentrations of test compounds were added in OptiMEM medium to the cells. The incubation was continued at 37° C. in CO2 incubator for 4 hours. Medium was removed and cells were washed with phosphate buffered saline. The cells were lysed and luciferase activity was measured in a Luminometer. Luminescence units were plotted against the compound concentrations using Graphpad software. EC50 values of the compounds were defined as the concentration required in stimulating the luciferase activity by 50%.

Data set [4] is described as follows: Rodent pharmacokinetic study. It is filed as in vivo, Male wistar rats. The settings on record: male, Wistar, plasma, rat; for bioavailability: 3 mg/kg oral vs 1 mg/kg intravenous. How it is done: Male wistar rats (225=25 grams) were used as experimental animals. Three to five animals were housed in each cage. Two days prior to dosing day, male wistar rats (225-250 grams) were anesthetized with isoflurane for surgical placement of jugular vein catheter. Animals were fasted over night before oral dosing (p.o) and food pellets were allowed 2 hours post dosing, whereas during intravenous dosing food and water were provided as ad libitum. Three rats were dosed with compounds of formula (I) (3 mg/kg) orally and intravenously (1 mg/kg).
At each time point blood was collected through jugular vein and immediately replenish with an equivalent volume of normal saline from freely moving rats. Collected blood was transferred into a labeled eppendr off containing 10 μL of heparin as anticoagulant. Typically blood samples were collected as following time points: Pre dose, 0.08 (only i.v.), 0.25, 0.5, 1, 2, 4, 6, 8, and 24 hours post
dose (n=3). Blood was centrifuged at 4000 rpm for 10 minutes. Plasma was prepared and stored frozen at −20° C. until analysis. The concentrations of the compounds of formula (I) were quantified in plasma by qualified LC-MS/MS method using suitable extraction technique. The compounds of formula (I) were quantified in the calibration range around 2-2000 ng/mL in plasma. Study samples were analyzed using calibration samples in the batch and quality control samples spread across the batch.
Pharmacokinetic parameters Cmax, Tmax, AUCt, T1/2 and Bioavailability were calculated by non-compartmental model using standard non-compartmental model by using WinNonLin 5.0.1 or Phoenix WinNonlin 6.2 version Software package.

Data set [5] has as its system Scopolamine Induced amnesia. Description: Radial arm maze. It is filed as in vivo, rats. The settings on record: p.o. The text has this:
The cognition enhancing properties of compounds of formula (I) of this invention were estimated by using this model. Radial arm maze consists of a central hub of 45 cm diameter. Each arm was of dimension 42.5×15×24 cm. The maze was elevated to a height of 1 m above the ground. The animals were placed on a restricted diet until they reached approximately 85% of their free feeding weight. During this diet restriction period animals were habituated to the novel feed (pellets). Once the rats reached approximately 85% of their free feeding weight rats were habituated to the maze on the 1^St and 2nd day. […] Animals were randomized on day 2. On the subsequent days the treatment was given as per the allotment. Each animal was introduced into the maze individually for a period of 10 minutes. The arms were baited only once and the animal had to learn the rule that repeated arm entries would not be rewarded. The trial ended once the rat had visited 16 arms or 10 minutes were over or all the pellets were eaten. The arm entries were recorded using the software. Once the trial was over the rat was removed and the maze was cleaned using soap water.

The subject of data set [6] is sAPPα. The data set can be described thus: Estimation of mice brain cortical sAPPα levels (ELISA). It is filed as in vivo. The settings on record: 0.1 and 10 mg/kg s.c., single injection, 60 minutes. The procedure: 1. […] 2. […] 3. […] 4. […] 5. […] Statistical analyses were performed using the Graph Pad Prism (Version 4). […] Values were compared between the different groups by using unpaired t test.

Structures are written as SMILES. Counter-ions that a name gives are not always drawn.

What is called EC50 is the concentration at which the effect is half-maximal. As usually defined, the AUC(0-t) is the area under the concentration-time curve up to a stated or last time point. A higher AUC(0-t) goes with more exposure. A word on the half-life: it is the time needed for the level to fall by half in the phase considered. The low end stands for fast loss, the high end for slow loss. The Cmax is the peak of the concentration-time curve. A word on the Tmax: it is the time at which the peak concentration occurs. The term bioavailability denotes the share of a dose that reaches the circulation, judged against a reference dose that is usually intravenous. A high value points to good availability. On to `CCn1cc2cccc(C(=O)NCC3CCN(CC4CCOCC4)CC3)c2n1.O=C(O)/C=C/C(=O)O` [Example 2, N—[(N-tetrahydropyran-4-ylmethyl)piperidin-4-ylmethyl]-2-ethyl-2H-indazole-7-carboxamide fumarate], for which the Kp in data set [1] is 1 ± 0.15. In data set [2] (0.3 mg/kg), the “Exploration time mean ± S.E.M, Familiar object” value stood at 7.21 ± 1.99 s; the “Exploration time mean ± S.E.M, Novel object” value came out at 13.10 ± 1.78 s; the Inference entry is given as “Active”. Moreover, the EC50 in data set [3] is no more than 1 nM. In data set [4] (1 mg/kg intravenous (bolus)), this compound showed an AUC(0-t) of 145 ± 18 ng·h/mL and a half-life of 102 ± 30 min. In data set [4] (3 mg/kg oral (gavage)), the AUC(0-t) was determined as 190 ± 43 ng·h/mL, the highest level (Cmax) was 223 ± 118 ng/mL, the Tmax came out at 19.8 ± 8.4 min and the half-life is 66 ± 36 min. For the same compound, the bioavailability in data set [4] is 44 ± 10%. In addition, in data set [5], the “Reversal of Scopolamine Induced amnesia - Effective dose range” value (“Reversal of Scopolamine Induced amnesia” for short) is 0.3 mg/kg, p.o.

Take `CC(C)n1cc2cccc(C(=O)NCC3CCN(CC(C)(C)O)CC3)c2n1.O=C(O)C(O)C(O)C(=O)O` [Example 32, N—[N-(2-hydroxy-2-methylpropyl)piperidin-4-ylmethyl]-2-isopropyl-2H-indazole-7-carboxamide L(+) Tartarate]: in data set [1], the Kp was determined as 0.52 ± 0.08. Further, in data set [2] (0.3 mg/kg), the “Exploration time mean ± S.E.M, Familiar object” value worked out at 7.79 ± 1.27 s; the “Exploration time mean ± S.E.M, Novel object” value turned out to be 17.98 ± 2.41 s; the Inference entry is “Active”. The concentration giving a half-maximal response (EC50) in data set [3] is no more than 1 nM. Further, in data set [4] (1 mg/kg intravenous (bolus)), the exposure AUC(0-t) amounted to 281 ± 6 ng·h/mL and the half-life was 72 ± 6 min. Also, in data set [4] (3 mg/kg oral (gavage)), the AUC(0-t) worked out at 155 ± 3 ng·h/mL, the highest level (Cmax) was 110 ± 8 ng/mL, the Tmax came to 30 min and the half-life is 48 min. The bioavailability in data set [4] was determined as 18%. In data set [5], the “Reversal of Scopolamine Induced amnesia” value was 0.3 mg/kg, p.o.

On to `CC(C)n1cc2cccc(C(=O)NCC3CCN(CC4CCOCC4)CC3)c2n1` [Example 1, N—[(N-tetrahydropyran-4-ylmethyl)piperidin-4-ylmethyl]-2-isopropyl-2H-indazole-7-carboxamide fumarate], for which, in data set [1], the Kp was found to be 0.98 ± 0.34. Besides, in data set [2] (1 mg/kg), the “Exploration time mean ± S.E.M, Familiar object” value worked out at 8.51 ± 1.35 s; the “Exploration time mean ± S.E.M, Novel object” value stood at 15.51 ± 1.37 s; the Inference result is listed as “Active”. The EC50 in data set [3] is no more than 1 nM. In data set [4] (1 mg/kg intravenous (bolus)), this compound showed an AUC(0-t) of 287 ± 40 ng·h/mL and a half-life of 66 ± 6 min. Also, in data set [4] (3 mg/kg oral (gavage)), the AUC(0-t) worked out at 212 ± 46 ng·h/mL, the Cmax is 107 ± 22 ng/mL, the time of peak concentration (Tmax) stood at 25.2 ± 8.4 min and the half-life is 90 min. In data set [4], this compound registered a bioavailability of 25 ± 5%.

Regarding `COCCCN1CC2C(CNC(=O)c3cccc4cn(C(C)C)nc34)C2C1.O=C(O)C(=O)O` (centres unmarked) [Example 3, N—[N-(3-methoxypropyl)-3-azabicyclo[3.1.0]hexane-6-ylmethyl]-2-isopropyl-2H-indazole-7-carboxamide oxalate], the Kp in data set [1] amounted to 0.96 ± 0.12. For the same compound, in data set [2] (1 mg/kg), the “Exploration time mean ± S.E.M, Familiar object” value is 5.67 ± 1.15 s; the “Exploration time mean ± S.E.M, Novel object” value was 14.26 ± 1.64 s; the Inference result is “Active”. The EC50 in data set [3] lay within 1.1 to 5 nM. Moreover, in data set [4] (1 mg/kg intravenous (bolus)), the AUC(0-t) turned out to be 397 ± 28 ng·h/mL and the half-life is 54 ± 6 min. For the same compound, in data set [4] (3 mg/kg oral (gavage)), the AUC(0-t) came out at 560 ± 117 ng·h/mL, the Cmax came out at 467 ± 37 ng/mL, the time to peak (Tmax) was 19.8 ± 8.4 min and the half-life is 48 ± 6 min. This compound displayed a bioavailability in data set [4] of 47 ± 10%. For the same compound, the “Reversal of Scopolamine Induced amnesia” value in data set [5] is recorded as 3 mg/kg, p.o. For the same compound, the “increase of mice brain cortical sAPPα levels in comparison with control group” value in data set [6] is given as 25-30%.

Take `CC(C)n1cc2cccc(C(=O)NCC3(F)CCN(CC4(O)CCOCC4)CC3)c2n1` [Example 31, N—[N-(4-hydroxytetrahydropyran-4-ylmethyl)-4-fluoropiperidin-4-ylmethyl]-2-isopropyl-2H-indazole-7-carboxamide L(+) Tartarate]: in data set [3], the half-maximal effective concentration (EC50) fell in the range of 1.1 to 5 nM.
